{"source": "patent US11780868B1", "about": "“Homoleptic metal coordination complexes as antifungal agents” (King Abdulaziz University, priority 2023, dated 2023)", "key": {"cytochrome c oxidase": {"system": "cytochrome c oxidase", "test": "Cytochrome c oxidase activity assay", "assay_type": "cell-based", "procedure": "To examine the effect of C1 on the induction of cellular apoptosis in C. albicans cells, crucial apoptotic markers were observed. For this purpose, C. albicans 4251 and C. albicans 5112 cells were subjected to protoplast preparation by utilizing a method described previously by Srivastava et al. in 2020 through their research study. Briefly, cells were grown overnight and were exposed for 4 h with different concentrations of C1 (0.5×MIC and 1×MIC) and H2O2 (positive control) whereas, untreated cells were used as a negative control. Later on, the cells were washed and incubated for 10 min at room temperature in protoplast buffer-1 (1M sorbitol, 0.05M tris base, 0.01M MgCl2, 0.03M DTT, pH 7.4). The cells were spun at 1500 rpm for 5 min and the pellet was resuspended in protoplast buffer-2 (1M sorbitol, 0.05M tris base, 0.01M MgCl2, 0.001M DTT, pH 7.4) supplemented with lyticase enzyme (1 μg/mL) and incubated for 1 h at room temperature. Afterwards, the cell suspension was again centrifuged, and the pellet was resuspended and incubated for 20 min at room temperature in protoplast buffer-3 (1M sorbitol, 0.05M tris base, 0.01M MgCl2, pH 7.4). A final washing (1500 rpm for 5 min) was given to the cells and the pellet consisting of C. albicans protoplasts was resuspended in fresh PBS and was stored at 4° C. until further use.\nThe role of C1 in the modulating cytochrome c oxidase activity in C. albicans was investigated. The mitochondria from C. albicans 4251 and C. albicans 5112 were isolated using Yeast Mitochondria Isolation Kit—MITOISO3 (Sigma-Aldrich St. Louis, MO, U.S.A.) and then the Cytochrome c oxidase assay kit (ScienCell, Cat. No. 8278, CA, USA) was used to detect the cytochrome c oxidase activity in the cells following the manufacturer's instructions. Briefly, the C. albicans protoplasts were homogenized and the homogenate was resuspended and centrifuged in storage buffer (1×, 1 mL) at 6,500×g at 4° C. (10 min). The supernatant was discarded and resuspended in 200 μL of storage buffer (1×). The TCA Lowry method was utilized for determining the protein concentration present in the sample. Later on, the estimation of cytochrome c oxidase activity was done by preparing an assay mixture (Assay Buffer, 940 μL; n-dodecyl β-D-maltoside solution, 10 μL; mitochondrial protein, 2 μg) in a cuvette and then adding cytochrome c substrate solution (50 μL, provided in the kit) to it. Any change in absorbance was measured on a kinetic program (550 nm; every 30 seconds with an interval of 5 seconds) by using a spectrophotometer (UV-1800, Shimadzu Corporation, Japan)."}, "horse red blood cells": {"system": "horse red blood cells", "test": "Haemolytic activity", "assay_type": "cell-based", "conditions": "horse RBC", "procedure": "To determine the cytotoxicity of C1, horse red blood cells (H-RBC; NHLS, Johannesburg, South Africa) were used. The horse blood was centrifuged, and the cell pellet was secured and washed three times with cold PBS. The final pellet was dissolved in cold PBS to make a 10% H-RBC solution. From this solution, 15 mL of 1% H-RBC solution was again prepared with the help of PBS. Then, 1 mL was aliquoted and added to various concentrations (0.5×MIC, 1×MIC, 2×MIC and 4×MIC) of C1 in 2 mL Eppendorf tubes. The negative control consisted of the RBC solution mixed with PBS; while the positive control consisted of RBC mixed with 1% Triton X-100. The samples were incubated for 4 h at 37° C. Following incubation, the samples were centrifuged at 2000 rpm for 10 minutes and supernatant (200 μL) was transferred to a flat-bottomed 96-well microtiter plate and the absorbance was measured at 450 nm using a SpectraMax ID3 Multimode Plate Reader (Molecular Devices, LLC., USA). The percentage of haemolysis was calculated by using the following equation: […]"}}}
{"compound": "Brc1ccc([O][Co][O]c2ccc(Br)cc2C=Nc2ccc3c(c2)OCCO3)c(C=Nc2ccc3c(c2)OCCO3)c1", "note": "[Complex C1, [Co(L)2]]", "values": [{"measurement": "average percent decrease in cytochrome c oxidase activity", "setting": "cytochrome c oxidase; Flz resistant strain (C. albicans 5112), 0.5×MIC", "result": 14.2, "unit": "%"}, {"measurement": "average percent decrease in cytochrome c oxidase activity", "setting": "cytochrome c oxidase; Flz resistant strain (C. albicans 5112), 1×MIC", "result": 47.53, "unit": "%"}, {"measurement": "average percent decrease in cytochrome c oxidase activity", "setting": "cytochrome c oxidase; Flz sensitive strain (C. albicans 4251), 0.5×MIC", "result": 22.61, "unit": "%"}, {"measurement": "average percent decrease in cytochrome c oxidase activity", "setting": "cytochrome c oxidase; Flz sensitive strain (C. albicans 4251), 1×MIC", "result": 51.3, "unit": "%"}, {"measurement": "haemolytic activity (in words)", "setting": "horse red blood cells", "result": "considerably less haemolytic activity"}, {"measurement": "haemolytic activity", "setting": "horse red blood cells; 4×MIC, 4 h, 37° C.", "result": 10, "unit": "%"}]}
